In a melting point compilation (Tetko et al.; mined from patent text by program, amines drawn as free bases though some values may be those of a salt):

SMILES	melting point
COC(=O)c1c(CC(C)C)nc2ccc(Cl)cc2c1-c1ccccc1	111 to 112 °C
CC(C)Cn1cccc1C(=O)C(C#N)C(=O)Nc1ccccc1 (centres undefined)	134 to 136 °C
Oc1cccnc1Oc1cccc(Br)c1	107 to 108 °C
CCOC(=O)c1cccc(NC(=O)CN2C(=O)c3ccccc3C2=O)c1	215 °C
O=c1c(-c2ccccc2)coc2cc(OCC3CO3)ccc12 (centres undefined)	151 to 152 °C
CCCCCC(COc1ccc(C(=O)O)cc1)c1ccc2c(c1)SCCC2(C)C (centres undefined)	123 to 124 °C
COC(=O)c1cc(-c2ccc(C)cc2)n(-c2ccc(S(N)(=O)=O)cc2)n1	138 to 139 °C
CC(C)(Oc1ccccc1)C(=O)N[C@H]1CC[C@H](c2ccc(O)cc2)CC1	114 to 117 °C
ClCc1ccc(OCCC(c2ccccc2)(c2ccccc2)c2ccccc2)cc1	91 to 95 °C
Cc1nc(Nc2ccccc2)sc1-c1nc2ccccc2c(=O)n1-c1ccccc1Cl	228 to 229 °C
Nc1ccc(OCc2c(Cl)cccc2Cl)cc1[N+](=O)[O-]	155 °C
NC(=O)c1ncn2c1[C@@H]1CCN1C(=O)c1c(Br)cccc1-2	314 to 317 °C
CNc1nc(Br)cc(Sc2ccccc2)n1	122 to 124 °C
COc1cc(OC)cc(N2CCN(C(=S)Nc3cc4c(nc3OC)CCCC4)CC2)c1	160 to 161 °C
CCCCCCCCCCCCCCCCCCOc1cc(OCCCOc2ccccc2OCc2ccccc2)cc(C(=O)OCc2ccccc2)c1	49 to 50 °C
O=C(C=Cc1cccnc1)NCC=CCN1CCN(C(c2ccccc2)c2ccccc2)CC1	116 to 119 °C
CN1CC(CCCl)Oc2cc3ccccc3nc2C1=S (centres undefined)	114 to 116 °C
N#Cc1ccsc1S(N)(=O)=O	152 to 155 °C
CCP(=S)(CC)OC(=O)/C=N\OCc1csc(N)n1	87 to 88 °C
N#CC1CN1C(=O)CCN1C(=O)c2ccccc2C1=O (centres undefined)	168 to 170 °C

SMILES	melting point
O=C1CC2(C(=O)N1)C(=O)N(Cc1ccc(Cl)c(Cl)c1)c1ccc(F)cc12 (centres undefined)	253 to 254 °C
Cc1cccc2cc3c(=O)n(C)cc(C(=O)N[C@@H](C)C(=O)N(C)C)c3nc12	268 to 274 °C
C#CCCOc1cc(/C=C/C(=O)Nc2ccccc2C(=O)O)ccc1OC	197 to 198 °C
O=C(NCc1ccccc1C(F)(F)F)c1ccc2cnccc2n1	125 to 127 °C
CC(=O)Nc1cccc(-c2cccc(-n3cnc4cc(C(F)(F)F)ccc43)c2)c1	118 to 120 °C
COc1ccc(N2CCN(c3nc(NC(C)(C)C(C)(C)C)nc(NC(C)(C)C(C)(C)C)n3)CC2)cc1	155 to 157 °C
CON1CCN2C(=O)C(c3cc(C)ccc3C)C(=O)N2CC1	167 to 169 °C
CS(=O)(=O)OCc1cc(I)cc(I)c1I	130 to 133 °C
COc1ccc2c(c1)C13CCN(C#N)C(C2)C1CCC(=O)C3 (centres undefined)	211 to 214 °C
Cc1c[nH]c2c(=O)n(CC(=O)N[C@H](C=O)CC(=O)O)cnc12	222 to 226 °C
Nc1nc2c(s1)CCN(CC=Cc1cccc(O)c1)CC2	85 to 95 °C
O=C(O)COc1c(Br)cc2oc(C(=O)c3ccccc3)cc2c1Br	179 to 181 °C
O=C(CCCCCBr)Nc1ccc(O)cc1F	66 to 69 °C
c1ccc(C(Nc2ccncc2)c2ccccc2)cc1	148 to 150 °C
COC(=O)CCc1nc(C=O)ccc1OC	95 to 97 °C
O=C(Nc1ccc(C(=O)N2Cc3ccc(C(=O)C(Cl)(Cl)Cl)n3Cc3ccccc32)cc1)c1ccccc1C(F)(F)F	219 to 221 °C
Cc1cn(N=Cc2cccnc2)c(=O)n1N=Cc1cccnc1	176 to 178 °C
CC(C)c1ccc(C(=O)CCCCl)cc1	35 to 37 °C
CCOC(=O)C1=C(C)Nc2nc(N3CCOCC3)nc(N3CCOCC3)c2C1c1ccccc1C#N (centres undefined)	248 °C
CCOC(=O)NC(CCSC)C(N)=O (racemic)	110 to 112 °C

SMILES	melting point
N#CCc1ccc2ncc(C(=O)NCc3ccc(Cl)cc3)c(O)c2c1	244 to 246 °C
CCOCc1nc2c(N)nc3ccccc3c2n1CCCC1(O)CCCCC1	175 to 176 °C
OCC=C(c1ccccc1)c1ccccc1	112 to 115 °C
CCOC(=O)C1(I)C=CC(c2ccccc2)=CC1 (centres undefined)	105 to 106 °C
O=C(NCCO)c1cccc(-c2ccc3c(n2)C(Oc2ccc(Cl)cc2Cl)CC3)c1 (centres undefined)	181 to 182 °C
CCc1cc2c(s1)S(=O)(=O)NC2=O	143 °C
COC(=O)c1sc(C)c(Br)c1OC(=S)N(C)C	152 to 154 °C
Cc1cc(Oc2cccc(C(F)(F)F)c2)nn1C(=O)Nc1ccc(C(F)(F)F)cc1	82 to 84 °C
COc1ccc(CNC(=O)c2[nH]c3ccc(Cl)cc3c2S(=O)(=O)c2ccccc2)cc1	205 to 206 °C
COc1ccc(CNc2cc(C(O)CNC(C)(C)CCn3cnc4ccccc43)ccc2O)cc1 (centres undefined)	154 to 155 °C
C#CC1(c2ccc(OC(F)F)c(OCC3CC3)c2)CCC(=O)CC1	75 to 77 °C
COc1ccc(Cl)cc1NC(=O)C1CCNCC1	124 to 126 °C
CCOC(=O)NC(=S)NCCOCC1=C(C(=O)OCC)C(c2cccc(Cl)c2Cl)C(C(=O)OC)=C(C)N1 (centres undefined)	144 °C
COC(C)c1ccc(O)cc1 (single isomer, unassigned; (+))	114 to 115 °C
CC(C)OC(=O)c1cc(-n2c(=O)c3c(n(C)c2=O)CCC3)c(F)cc1Cl	111 to 113 °C
C=C(Cc1c(Cl)cccc1Cl)C(=O)O	132 °C
CCc1nc2c(N)nc3cc(CCC(=O)N(C)C)ccc3c2n1CC(C)(C)O	234 to 237 °C
CCCCCCCCCOC(=O)c1cc(-c2csc(-c3ccc(OCC)c(OCC)c3)n2)ccc1O	67 to 68 °C

Results, then the compound that gave them:

melting point	SMILES
143 to 146 °C	COc1ccccc1Cn1c(=O)[nH]c2cc(Cl)cc(Cl)c2c1=O
85 °C	O=C(O)CCNc1cccc(CNC(=O)C2Cc3ccccc3N2S(=O)(=O)c2ccc(-c3cccc(C(F)(F)F)c3)cc2)c1 (centres undefined)
208 to 210 °C	CC(=N)Nc1cccc(Br)c1
> 300 °C	CCC1=C(C#N)C(c2cccc(C#N)c2Br)c2c[nH]nc2N1 (centres undefined)
91 to 93 °C	COC(=O)C=CCc1cc(C=CC(=O)OC(C)(C)C)cc(Cc2cccnc2)c1
189 °C	CCCc1c(CSc2nnc(NC(=O)C(=O)OCC)s2)ccc(C(C)=O)c1O
127 to 132 °C	CC(c1oc2ccccc2c(=O)c1-c1cccc(F)c1)n1nc(-c2cccc(C(=O)NC3CC3)c2)c2c(N)ncnc21 (centres undefined)
94 to 95 °C	CCOP(=O)(CNc1ccc(Cl)cc1[N+](=O)[O-])OCC
297 to 302 °C	O=c1[nH]c2cc(Br)c3c(c2[nH]c1=O)CN(Cc1ccccc1)CC3
78 to 79 °C	Cc1ccc(C(=O)C2C(=O)CCC(C)(C)C2=O)cc1 (centres undefined)
110 to 126 °C	CCOCc1cnc2c([N+](=O)[O-])cccc2c1Cl
189 to 191 °C	Cc1c(CN2CCN(c3cccc(Cl)c3)C2=O)ncn1C(c1ccccc1)(c1ccccc1)c1ccccc1
122 °C	CC(C)N(C)C(=O)C(Cc1ccc(C=O)cc1)NC(=O)OC(C)(C)C (centres undefined)
78 to 79 °C	CCCCCCOc1ccc2cc(OCCCCCC)ccc2c1
202 to 204 °C	O=C1c2c(O)ccc(O)c2C(=O)c2c(NCCN3CCCC3CO)ccc(NCCN3CCCC3CO)c21 (centres undefined)
65 to 66 °C	CCCCCCC(C(=O)O)c1cccc(Oc2ccccc2C)c1O (centres undefined)
133 to 134 °C	COc1ccc(CNc2cc(Cn3c(C(=O)c4cc(C)cc(C#N)c4)c(C(C)C)c(=O)[nH]c3=O)c(F)c(F)n2)cc1
115 to 116 °C	CCn1cc(CN(C(=O)C2CCc3cc(OC)ccc32)c2ccc(C(C)C)cc2)cn1 (centres undefined)
162 °C	CCOCc1nc2c(N)nc(C)c(C)c2n1CCCNC(C)=O
36 °C	COC(=O)c1cccc(Cl)c1N
203 to 205 °C	COC(=O)c1ccc2oc3c(c(=O)c2c1)CCC3=Cc1ccccc1C

melting point	SMILES
78 to 80 °C	COc1cc(CCI)cc2c1OCO2
204 to 206 °C	Cc1nc2c(-c3cccc(N4CCN(C)CC4)c3)cnn2c(N)c1-c1ccc(F)cc1
282 to 284 °C	Oc1ccc2nc(-c3ccc(O)c(O)c3)oc2c1
105 °C	CCn1ncnc1COc1nn2c(-c3ccccc3F)nncc2c1C(C)(C)C
51 to 52 °C	CCCCCCCCCCC[C@H](CC(=O)N[C@H](CO)C(=O)OCc1ccccc1)OC(=O)CCCCCCCCC
85 to 87 °C	O=C(O)c1ccc(CN([C@@H](CO)c2ccccc2)S(=O)(=O)c2ccc(Cl)cc2)cc1
270 °C	CC(=O)c1cccc(NC(=O)c2cc(C(N)=O)cc(C(=O)N(c3cccc(C(C)=O)c3)c3cccc(C(C)=O)c3)c2)c1
92.5 to 93 °C	Cc1nc(C(F)(F)F)ccc1C(Cl)=C1C(=O)C(C)(C)C(=O)C(C)(C)C1=O
161 to 163 °C	CCc1cc(O)c2cnn(C(C)=O)c2c1
198 to 201 °C	C#CCN1CCC(N2C(=O)Nc3ccccc3C2c2ccccc2)CC1 (centres undefined)
64 to 72 °C	CCN(CC)c1ccc2c(c1)Oc1cc(OC(C)=O)c3ccccc3c1N2C(C)=O
90 to 92 °C	CCCCc1oc2ccc(C(N)=O)cc2c1C(=O)c1ccc(OCCCN(CCCC)CCCC)cc1
144 to 145 °C	CC(=O)NCCn1ccc2c1-c1ccc(Cl)cc1CC2
151 to 153 °C	CC(C)(C)OC(=O)NC1COCCCC=CC2CC2(C(=O)NS(=O)(=O)C2CC2)NC(=O)C2CC(OC(=O)Nc3ccccc3Oc3ccccc3)CN2C1=O (centres undefined)
96 to 102 °C	OCCCc1ccc(Sc2ccc(CCCO)cc2C(F)(F)F)c(C(F)(F)F)c1
112 to 114 °C	COC(=O)c1cc(C(=O)CBr)cs1
182 °C	O=C(/C=C/c1ccc(C(=O)O)cc1)NOC1CCCCO1 (centres undefined)
157 to 158 °C	CCCNC(=O)CCn1c(CCC)nc2c(N)nc3ccccc3c21
195 °C	O=C1c2ccccc2C(=O)N1CCON=C1c2ccccc2-n2cccc21
133 to 135 °C	O=C1NCCc2c1c1ccccc1n2COCc1ccccc1
